Data taken from publication PMC3523469 (Investigational New Drugs, 2012).
Like-named read-outs stand apart in the source and are kept apart here.

Format: in vivo, Japanese patients
Settings: 15 mg QD (n = 3)

With `COc1cc2ncnc(Nc3ccc(F)c(Cl)c3)c2cc1NC(=O)/C=C/CN1CCCCC1` [dacomitinib, Dacomitinib] the “Alanine aminotransferase increased, number of patients with treatment-related AE” value (“Alanine aminotransferase increased” below) (All) was 0, the “Aspartate aminotransferase increased, number of patients with treatment-related AE” value (shortened to “Aspartate aminotransferase increased”) (All) was 0 and the “Blood bilirubin increased, number of patients with treatment-related AE” value (shortened to “Blood bilirubin increased, number”) (All) was 0. The “Cheilitis, number of patients with treatment-related AE” value (“Cheilitis, number of patients” below) (All) was 2, the “Conjunctivitis, number of patients with treatment-related AE” value (from here on “Conjunctivitis, number of patients”) (All) was 0 and the “Decreased appetite, number of patients with treatment-related AE” value (“Decreased appetite, number of patients” below) (All) was 0. For the same compound, the “Diarrhea, number of patients with treatment-related AE” value (shortened to “Diarrhea, number of patients”) (All) was 2, the “Dry skin, number of patients with treatment-related AE” value (shortened to “Dry skin, number of patients”) (All) was 2 and the “ECG QT prolonged, number of patients with treatment-related AE” value (shortened to “ECG QT prolonged, number of patients”) (All) was 2. The “Edema, number of patients with treatment-related AE” value (shortened to “Edema, number of patients”) (All) was 0, the “Fatigue, number of patients with treatment-related AE” value (“Fatigue, number of patients” below) (All) was 0 and the “Hematuria, number of patients with treatment-related AE” value (“Hematuria, number of patients” below) (All) was 0. The “Hypertrichosis, number of patients with treatment-related AE” value (from here on “Hypertrichosis, number of patients”) (All) was 0, the “Leukopenia, number of patients with treatment-related AE” value (“Leukopenia, number of patients” below) (All) was 0 and the “Nausea, number of patients with treatment-related AE” value (shortened to “Nausea, number of patients”) (All) was 0. The “Palmar–plantar erythrodysesthesia, number of patients with treatment-related AE” value (“Palmar–plantar erythrodysesthesia” below) (All) was 1, the “Paronychia, number of patients with treatment-related AE” value (“Paronychia, number of patients” for short) (All) was 1 and the “Proteinuria, number of patients with treatment-related AE” value (shortened to “Proteinuria, number of patients”) (All) was 0. The “Rash, number of patients with treatment-related AE” value (“Rash, number of patients” for short) (All) was 3, the “Skin fissures, number of patients with treatment-related AE” value (“Skin fissures, number of patients” for short) (All) was 0 and the “Stomatitis, number of patients with treatment-related AE” value (from here on “Stomatitis, number of patients”) (All) was 1. For the same compound, the “Weight decreased, number of patients with treatment-related AE” value (shortened to “Weight decreased, number of patients”) (All) was 0, the “Alanine aminotransferase increased” value (G1) was 0 and the “Aspartate aminotransferase increased” value (G1) was 0. For the same compound, the “Blood bilirubin increased, number” value (G1) was 0, the “Cheilitis, number of patients” value (G1) was 2 and the “Conjunctivitis, number of patients” value (G1) was 0. For the same compound, the “Decreased appetite, number of patients” value (G1) was 0, the “Diarrhea, number of patients” value (G1) was 2 and the “Dry skin, number of patients” value (G1) was 1. The “ECG QT prolonged, number of patients” value (G1) was 1, the “Edema, number of patients” value (G1) was 0 and the “Fatigue, number of patients” value (G1) was 0. The “Hematuria, number of patients” value (G1) was 0, the “Hypertrichosis, number of patients” value (G1) was 0 and the “Leukopenia, number of patients” value (G1) was 0. The “Nausea, number of patients” value (G1) was 0, the “Palmar–plantar erythrodysesthesia” value (G1) was 1 and the “Paronychia, number of patients” value (G1) was 0. For the same compound, the “Proteinuria, number of patients” value (G1) was 0, the “Rash, number of patients” value (G1) was 2 and the “Skin fissures, number of patients” value (G1) was 0. The “Stomatitis, number of patients” value (G1) was 1, the “Weight decreased, number of patients” value (G1) was 0 and the “Alanine aminotransferase increased” value (G2) was 0. The “Aspartate aminotransferase increased” value (G2) was 0, the “Blood bilirubin increased, number” value (G2) was 0 and the “Cheilitis, number of patients” value (G2) was 0. For the same compound, the “Conjunctivitis, number of patients” value (G2) was 0, the “Decreased appetite, number of patients” value (G2) was 0 and the “Diarrhea, number of patients” value (G2) was 0. For the same compound, the “Dry skin, number of patients” value (G2) was 1, the “ECG QT prolonged, number of patients” value (G2) was 1 and the “Edema, number of patients” value (G2) was 0. The “Fatigue, number of patients” value (G2) was 0, the “Hematuria, number of patients” value (G2) was 0 and the “Hypertrichosis, number of patients” value (G2) was 0. The “Leukopenia, number of patients” value (G2) was 0, the “Nausea, number of patients” value (G2) was 0 and the “Palmar–plantar erythrodysesthesia” value (G2) was 0. For the same compound, the “Paronychia, number of patients” value (G2) was 1, the “Proteinuria, number of patients” value (G2) was 0 and the “Rash, number of patients” value (G2) was 1. For the same compound, the “Skin fissures, number of patients” value (G2) was 0, the “Stomatitis, number of patients” value (G2) was 0 and the “Weight decreased, number of patients” value (G2) was 0. For the same compound, the “Alanine aminotransferase increased” value (G3) was 0, the “Aspartate aminotransferase increased” value (G3) was 0 and the “Blood bilirubin increased, number” value (G3) was 0. For the same compound, the “Cheilitis, number of patients” value (G3) was 0, the “Conjunctivitis, number of patients” value (G3) was 0 and the “Decreased appetite, number of patients” value (G3) was 0. The “Diarrhea, number of patients” value (G3) was 0, the “Dry skin, number of patients” value (G3) was 0 and the “ECG QT prolonged, number of patients” value (G3) was 0. The “Edema, number of patients” value (G3) was 0, the “Fatigue, number of patients” value (G3) was 0 and the “Hematuria, number of patients” value (G3) was 0. The “Hypertrichosis, number of patients” value (G3) was 0 and the “Leukopenia, number of patients” value (G3) was 0.
